Assay results published in patent US20250230193A1, “CYCLIC COMPOUND HAVING SELECTIVE KRAS INHIBITORY EFFECT ON HRAS AND NRAS” (CHUGAI SEIYAKU KABUSHIKI KAISHA, priority 2022, published 2025).
*1 amine or outer side, *2 acyl side, *3 side chain or, on linkers, in order; H or OH if unused. Where a SMILES comes first, the peptide text is derived from it. Bridges are numbered along the chain shown (N, C = ends). [ ]: non-standard residue; d: D form. The star is where a group is joined. hPhe(3-Cl-4-CF3) = N[C@@H](CCc1ccc(C(F)(F)F)c(Cl)c1)C(=O)O; NEtPhe(4-CF3) = CCN[C@@H](Cc1ccc(C(F)(F)F)cc1)C(=O)O; X10 = CCCN([C@@H](Cc1ccc(F)cc1)C(=O)[*:2])[*:1]; X44 = CCCN([C@@H](Cc1ccccc1)C(=O)[*:2])[*:1]; NEtPhe(4-F) = CCN[C@@H](Cc1ccc(F)cc1)C(=O)O; NMePhe(4-F) = CN[C@@H](Cc1ccc(F)cc1)C(=O)O; NMeGly(cPent) = CN[C@H](C(=O)O)C1CCCC1; NEtPhe = CCN[C@@H](Cc1ccccc1)C(=O)O; NMeD = CN[C@@H](CC(=O)O)C(=O)O; NMeL = CN[C@@H](CC(C)C)C(=O)O; Ac6c = NC1(C(=O)O)CCCCC1; Morpholide = C1CN(*)CCO1; NMeA = CN[C@@H](C)C(=O)O; Ac5c = NC1(C(=O)O)CCCC1; Aze = O=C(O)[C@@H]1CCN1; Ac3c = NC1(C(=O)O)CC1; Aib = CC(C)(N)C(=O)O; Sar = CNCC(=O)O

Experiments:
[1] = target: GDP-bound NRAS wild-type protein (Homo sapiens, UniProt P01111); assay: Binding to NRAS by surface plasmon resonance (SPR), Single Cycle Kinetics; conditions: KD ratio NRAS/KRAS, SPR
Sequence of GDP-bound NRAS wild-type protein (P01111 whole entry): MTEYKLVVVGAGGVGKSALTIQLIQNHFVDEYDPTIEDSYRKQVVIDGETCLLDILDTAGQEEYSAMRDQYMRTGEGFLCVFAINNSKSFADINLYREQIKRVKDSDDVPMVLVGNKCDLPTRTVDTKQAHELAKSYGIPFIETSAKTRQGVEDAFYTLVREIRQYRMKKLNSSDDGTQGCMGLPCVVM

[2] = target: GDP-bound HRAS wild-type protein (Homo sapiens, UniProt P01112); assay: Binding to HRAS by surface plasmon resonance (SPR), Single Cycle Kinetics; conditions: KD ratio HRAS/KRAS, SPR
Sequence of GDP-bound HRAS wild-type protein (P01112 whole entry): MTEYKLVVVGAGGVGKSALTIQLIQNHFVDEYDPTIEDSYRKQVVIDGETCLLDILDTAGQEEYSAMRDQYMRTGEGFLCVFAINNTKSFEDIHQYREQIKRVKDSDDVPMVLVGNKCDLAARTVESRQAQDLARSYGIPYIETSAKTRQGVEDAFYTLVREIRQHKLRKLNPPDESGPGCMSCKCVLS

SMILES | NRAS/KRAS (ratio of KD for GDP-bound NRAS wild-type to KD for KRAS) [1] | HRAS/KRAS (ratio of KD for GDP-bound HRAS wild-type to KD for KRAS) [2]
CCCN1C(=O)CN(C)C(=O)CN(C)C(=O)[C@H]([C@@H](C)CC)NC(=O)[C@H](CC(C)C)N(C)C(=O)C[C@@H](C(=O)N2CCOCC2)N(C)C(=O)[C@H](C2CCCC2)N(C)C(=O)C2(CCCC2)NC(=O)[C@@H]2CCCN2C(=O)[C@H](CCc2ccc(C(F)(F)F)c(Cl)c2)NC(=O)CN(C)C(=O)[C@@H]1Cc1ccccc1 [PP0211] ([NMeL]I[Sar][Sar][X44][Sar][hPhe(3-Cl-4-CF3)]P[Ac5c][NMeGly(cPent)][NMeD]-Morpholide; lactam N-11) | B (a compound having 3 or more and less than 10 is denoted as B) | C (A compound having a KD ratio of 0.1 or more and less than 3 is denoted as C)
CC[C@H](C)[C@@H]1NC(=O)[C@H](CC(C)C)N(C)C(=O)C[C@@H](C(=O)N2CCOCC2)N(C)C(=O)[C@H](C2CCCC2)N(C)C(=O)C2(CCCC2)NC(=O)[C@@H]2CCCN2C(=O)[C@H](CCc2ccc(C(F)(F)F)c(Cl)c2)NC(=O)CN(C)C(=O)[C@H](Cc2ccc(F)cc2)N(C)C(=O)CN(C)C(=O)CN(C)C1=O [PP0212] ([NMeL]I[Sar][Sar][NMePhe(4-F)][Sar][hPhe(3-Cl-4-CF3)]P[Ac5c][NMeGly(cPent)][NMeD]-Morpholide; lactam N-11) | C (A compound having a KD ratio of 0.1 or more and less than 3 is denoted as C) | C (A compound having a KD ratio of 0.1 or more and less than 3 is denoted as C)
CC[C@H](C)[C@@H]1NC(=O)[C@H](CC(C)C)N(C)C(=O)C[C@@H](C(=O)N2CCOCC2)N(C)C(=O)[C@H](C2CCCC2)N(C)C(=O)C2(CCCC2)NC(=O)[C@@H]2CCCN2C(=O)[C@H](CCc2ccc(C(F)(F)F)c(Cl)c2)NC(=O)CN(C)C(=O)[C@H](Cc2ccc(F)cc2)N(CC)C(=O)CN(C)C(=O)CN(C)C1=O [PP0213] ([NMeL]I[Sar][Sar][NEtPhe(4-F)][Sar][hPhe(3-Cl-4-CF3)]P[Ac5c][NMeGly(cPent)][NMeD]-Morpholide; lactam N-11) | C (A compound having a KD ratio of 0.1 or more and less than 3 is denoted as C) | C (A compound having a KD ratio of 0.1 or more and less than 3 is denoted as C)
CCCN1C(=O)CN(C)C(=O)CN(C)C(=O)[C@H]([C@@H](C)CC)NC(=O)[C@H](CC(C)C)N(C)C(=O)C[C@@H](C(=O)N2CCOCC2)N(C)C(=O)[C@H](C2CCCC2)N(C)C(=O)C2(CCCC2)NC(=O)[C@@H]2CCCN2C(=O)[C@H](CCc2ccc(C(F)(F)F)c(Cl)c2)NC(=O)CN(C)C(=O)[C@@H]1Cc1ccc(F)cc1 [PP0214] ([NMeL]I[Sar][Sar][X10][Sar][hPhe(3-Cl-4-CF3)]P[Ac5c][NMeGly(cPent)][NMeD]-Morpholide; lactam N-11) | B (a compound having 3 or more and less than 10 is denoted as B) | C (A compound having a KD ratio of 0.1 or more and less than 3 is denoted as C)
CC[C@H](C)[C@@H]1NC(=O)[C@H](CC(C)C)N(C)C(=O)C[C@@H](C(=O)N2CCOCC2)N(C)C(=O)[C@H](C2CCCC2)N(C)C(=O)C2(CCCC2)NC(=O)[C@@H]2CCCN2C(=O)[C@H](CCc2ccc(C(F)(F)F)c(Cl)c2)NC(=O)CN(C)C(=O)[C@H](Cc2ccccc2)N(CC)C(=O)[C@@H]2CCN2C(=O)[C@H](C)N(C)C1=O [PP0215] ([NMeL]I[NMeA][Aze][NEtPhe][Sar][hPhe(3-Cl-4-CF3)]P[Ac5c][NMeGly(cPent)][NMeD]-Morpholide; lactam N-11) | C (A compound having a KD ratio of 0.1 or more and less than 3 is denoted as C) | C (A compound having a KD ratio of 0.1 or more and less than 3 is denoted as C)
CCCN1C(=O)[C@@H]2CCN2C(=O)[C@H](C)N(C)C(=O)[C@H]([C@@H](C)CC)NC(=O)[C@H](CC(C)C)N(C)C(=O)C[C@@H](C(=O)N2CCOCC2)N(C)C(=O)[C@H](C2CCCC2)N(C)C(=O)C2(CCCC2)NC(=O)[C@@H]2CCCN2C(=O)[C@H](CCc2ccc(C(F)(F)F)c(Cl)c2)NC(=O)CN(C)C(=O)[C@@H]1Cc1ccccc1 [PP0216] ([NMeL]I[NMeA][Aze][X44][Sar][hPhe(3-Cl-4-CF3)]P[Ac5c][NMeGly(cPent)][NMeD]-Morpholide; lactam N-11) | C (A compound having a KD ratio of 0.1 or more and less than 3 is denoted as C) | B (a compound having 3 or more and less than 10 is denoted as B)
CC[C@H](C)[C@@H]1NC(=O)[C@H](CC(C)C)N(C)C(=O)C[C@@H](C(=O)N2CCOCC2)N(C)C(=O)[C@H](C2CCCC2)N(C)C(=O)C2(CCCC2)NC(=O)[C@@H]2CCCN2C(=O)[C@H](CCc2ccc(C(F)(F)F)c(Cl)c2)NC(=O)CN(C)C(=O)[C@H](Cc2ccc(F)cc2)N(C)C(=O)[C@@H]2CCN2C(=O)[C@H](C)N(C)C1=O [PP0217] ([NMeL]I[NMeA][Aze][NMePhe(4-F)][Sar][hPhe(3-Cl-4-CF3)]P[Ac5c][NMeGly(cPent)][NMeD]-Morpholide; lactam N-11) | C (A compound having a KD ratio of 0.1 or more and less than 3 is denoted as C) | C (A compound having a KD ratio of 0.1 or more and less than 3 is denoted as C)
CC[C@H](C)[C@@H]1NC(=O)[C@H](CC(C)C)N(C)C(=O)C[C@@H](C(=O)N2CCOCC2)N(C)C(=O)[C@H](C2CCCC2)N(C)C(=O)C2(CCCC2)NC(=O)[C@@H]2CCCN2C(=O)[C@H](CCc2ccc(C(F)(F)F)c(Cl)c2)NC(=O)CN(C)C(=O)[C@H](Cc2ccc(F)cc2)N(CC)C(=O)[C@@H]2CCN2C(=O)[C@H](C)N(C)C1=O [PP0218] ([NMeL]I[NMeA][Aze][NEtPhe(4-F)][Sar][hPhe(3-Cl-4-CF3)]P[Ac5c][NMeGly(cPent)][NMeD]-Morpholide; lactam N-11) | C (A compound having a KD ratio of 0.1 or more and less than 3 is denoted as C) | C (A compound having a KD ratio of 0.1 or more and less than 3 is denoted as C)
CCCN1C(=O)[C@@H]2CCN2C(=O)[C@H](C)N(C)C(=O)[C@H]([C@@H](C)CC)NC(=O)[C@H](CC(C)C)N(C)C(=O)C[C@@H](C(=O)N2CCOCC2)N(C)C(=O)[C@H](C2CCCC2)N(C)C(=O)C2(CCCC2)NC(=O)[C@@H]2CCCN2C(=O)[C@H](CCc2ccc(C(F)(F)F)c(Cl)c2)NC(=O)CN(C)C(=O)[C@@H]1Cc1ccc(F)cc1 [PP0219] ([NMeL]I[NMeA][Aze][X10][Sar][hPhe(3-Cl-4-CF3)]P[Ac5c][NMeGly(cPent)][NMeD]-Morpholide; lactam N-11) | C (A compound having a KD ratio of 0.1 or more and less than 3 is denoted as C) | B (a compound having 3 or more and less than 10 is denoted as B)
CC[C@H](C)[C@@H]1NC(=O)[C@H](CC(C)C)N(C)C(=O)C[C@@H](C(=O)N2CCOCC2)N(C)C(=O)[C@H](C2CCCC2)N(C)C(=O)C2(CC2)NC(=O)[C@@H]2CCCN2C(=O)[C@H](CCc2ccc(C(F)(F)F)c(Cl)c2)NC(=O)CN(C)C(=O)[C@H](Cc2ccc(C(F)(F)F)cc2)N(CC)C(=O)[C@@H]2CCN2C(=O)[C@H](C)N(C)C1=O [PP0220] ([NMeL]I[NMeA][Aze][NEtPhe(4-CF3)][Sar][hPhe(3-Cl-4-CF3)]P[Ac3c][NMeGly(cPent)][NMeD]-Morpholide; lactam N-11) | C (A compound having a KD ratio of 0.1 or more and less than 3 is denoted as C) | C (A compound having a KD ratio of 0.1 or more and less than 3 is denoted as C)
CC[C@H](C)[C@@H]1NC(=O)[C@H](CC(C)C)N(C)C(=O)C[C@@H](C(=O)N2CCOCC2)N(C)C(=O)[C@H](C2CCCC2)N(C)C(=O)C(C)(C)NC(=O)[C@@H]2CCCN2C(=O)[C@H](CCc2ccc(C(F)(F)F)c(Cl)c2)NC(=O)CN(C)C(=O)[C@H](Cc2ccc(C(F)(F)F)cc2)N(CC)C(=O)[C@@H]2CCN2C(=O)[C@H](C)N(C)C1=O [PP0221] ([NMeL]I[NMeA][Aze][NEtPhe(4-CF3)][Sar][hPhe(3-Cl-4-CF3)]P[Aib][NMeGly(cPent)][NMeD]-Morpholide; lactam N-11) | C (A compound having a KD ratio of 0.1 or more and less than 3 is denoted as C) | C (A compound having a KD ratio of 0.1 or more and less than 3 is denoted as C)
CC[C@H](C)[C@@H]1NC(=O)[C@H](CC(C)C)N(C)C(=O)C[C@@H](C(=O)N2CCOCC2)N(C)C(=O)[C@H](C2CCCC2)N(C)C(=O)C2(CCCCC2)NC(=O)[C@@H]2CCCN2C(=O)[C@H](CCc2ccc(C(F)(F)F)c(Cl)c2)NC(=O)CN(C)C(=O)[C@H](Cc2ccc(C(F)(F)F)cc2)N(CC)C(=O)[C@@H]2CCN2C(=O)[C@H](C)N(C)C1=O [PP0222] ([NMeL]I[NMeA][Aze][NEtPhe(4-CF3)][Sar][hPhe(3-Cl-4-CF3)]P[Ac6c][NMeGly(cPent)][NMeD]-Morpholide; lactam N-11) | C (A compound having a KD ratio of 0.1 or more and less than 3 is denoted as C) | C (A compound having a KD ratio of 0.1 or more and less than 3 is denoted as C)
